Patent publication US6914045B2, “Glycopeptide antibiotics” (Wyeth Holdings Corporation, priority 2001, dated 2005)
≈ marks a conversion by molar mass, not a printed value. Blank lines part the entries; values can stand above or below the compound they belong to. Numbered stars: 1 amine (or outer) side, 2 acyl side, 3 side chain; on linkers, the order of the positions; unused ones are H or OH. Square brackets hold non-standard residues; d marks the D form. Peptide text beside a SMILES is read from it. ξ: configuration not given here. X6 = N=C1NCC(CC(N[*:1])C(=O)[*:2])N1C1OC(CO)C(O)C(O)C1O; Tyr(3-NO2) = N[CH](Cc1ccc(O)c([N+](=O)[O-])c1)C(=O)O; X7 = N=C1NCC(CC(N[*:1])C(=O)[*:2])N1; ξPhe(βξ-Me) = CC(c1ccccc1)C(N)C(=O)O

Tests used:
Test in all cases: in vitro antibacterial evaluation, MIC by broth dilution
Format in all cases: cell-based
[1] = test system: Enterococcus sp.; conditions: broth dilution, 18 hours at 35° C.; for MIC Enterococcus faecalis (GC 2242): strain GC 2242; for MIC Enterococcus faecalis (GC 2691): strain GC 2691; for MIC Enterococcus faecalis (GC 3059): strain GC 3059
In short: (§1)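 Following National Committee for Clinical Laboratory Standards recommendations (M7-A2), susceptibility was measured by dilution in Muller-Hinton II […]. Bacteria were seeded at 5×10^5 CFU/mL against compound concentrations from 64 down to 0.06 μg/mL.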

[2] = test system: Staphylococcus sp.
In short: as §1

[3] = test system: Streptococcus sp.; conditions: broth dilution, 18 hours at 35° C.; for MIC Streptococcus pneumoniae (ATCC 6301): strain ATCC 6301; for MIC Streptococcus pneumoniae (GC 1894): strain GC 1894; for MIC Streptococcus pyogenes (GC 4563): strain GC 4563; for MIC Streptococcus agalactiae (GC 4564): strain GC 4564; for MIC Streptococcus pneumoniae (GC 4565): strain GC 4565
In short: as §1

[4] = test system: Escherichia coli; conditions: broth dilution, 18 hours at 35° C.; for MIC Escherichia coli (ATCC 25922): strain ATCC 25922; for MIC Escherichia coli (GC 4559): strain GC 4559; for MIC Escherichia coli (GC 4560): strain GC 4560
In short: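 Broth dilution in Muller-Hinton II medium per NCCLS standard M7-A2, with an inoculum of 5×10^5 CFU/mL and antibiotic tested over 64-0.06 μg/mL. MIC was taken as the lowest concentration inhibiting visible growth.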

- MIC Enterococcus avium (GC 4558) ([1]; Enterococcus avium (GC 4558)): >128 µg/mL
- MIC Enterococcus faecalis (ATCC 29212) ([1]; Enterococcus faecalis (ATCC 29212)): >128 µg/mL
- MIC Enterococcus faecalis (GC 4552) ([1]; Enterococcus faecalis (GC 4552)): >128 µg/mL
- MIC Enterococcus faecalis (GC 4553) ([1]; Enterococcus faecalis (GC 4553)): >128 µg/mL
- MIC Enterococcus faecalis (GC 4554) ([1]; Enterococcus faecalis (GC 4554)): >128 µg/mL
- MIC Enterococcus faecalis (GC 6189) ([1]; Enterococcus faecalis (GC 6189)): >128 µg/mL
- MIC Enterococcus faecium (GC 2243) ([1]; Enterococcus faecium (GC 2243)): >128 µg/mL
- MIC Enterococcus faecium (GC 4556) ([1]; Enterococcus faecium (GC 4556)): >128 µg/mL
- MIC Enterococcus faecium (GC 4557) ([1]; Enterococcus faecium (GC 4557)): >128 µg/mL
- MIC Enterococcus faecalis (ATCC 29212) ([1]; strain ATCC 29212): >128 µg/mL
- MIC Enterococcus faecalis (GC 2242) [1]: >128 µg/mL
- MIC Enterococcus faecium (GC 2243) ([1]; strain GC 2243): >128 µg/mL
- MIC Enterococcus faecalis (GC 2691) [1]: >128 µg/mL
- MIC Enterococcus faecalis (GC 3059) [1]: >128 µg/mL
- MIC Enterococcus faecalis (GC 4552) ([1]; strain GC 4552): >128 µg/mL
- MIC Enterococcus faecalis (GC 4553) ([1]; strain GC 4553): >128 µg/mL
- MIC Enterococcus faecalis (GC 4554) ([1]; strain GC 4554): >128 µg/mL
- MIC Enterococcus faecium (GC 4556) ([1]; strain GC 4556): >128 µg/mL
- MIC Enterococcus faecium (GC 4557) ([1]; strain GC 4557): >128 µg/mL
- MIC Enterococcus avium (GC 4558) ([1]; strain GC 4558): >128 µg/mL
- MIC Enterococcus faecalis (GC 6189) ([1]; strain GC 6189): >128 µg/mL
- MIC Staphylococcus aureus (ATCC 29213) ([2]; strain ATCC 29213; broth dilution, 18 hours at 35° C.): >128 µg/mL
- MIC Staphylococcus aureus (GC 1131) ([2]; strain GC 1131; broth dilution, 18 hours at 35° C.): >128 µg/mL
- MIC Staphylococcus aureus (GC 3051) ([2]; strain GC 3051; broth dilution, 18 hours at 35° C.): >128 µg/mL
- MIC Staphylococcus aureus (GC 3053) ([2]; strain GC 3053; broth dilution, 18 hours at 35° C.): >128 µg/mL
- MIC Staphylococcus aureus (GC 4541) ([2]; strain GC 4541; broth dilution, 18 hours at 35° C.): >128 µg/mL
- MIC Staphylococcus aureus (GC 4542) ([2]; strain GC 4542; broth dilution, 18 hours at 35° C.): >128 µg/mL
- MIC Staphylococcus aureus-SMITH (GC 4543) ([2]; strain GC 4543; broth dilution, 18 hours at 35° C.): >128 µg/mL
- MIC Staphylococcus aureus (GC 4544) ([2]; strain GC 4544; broth dilution, 18 hours at 35° C.): >128 µg/mL
- MIC Staphylococcus aureus (GC 4545) ([2]; strain GC 4545; broth dilution, 18 hours at 35° C.): >128 µg/mL
- MIC Coagulase Negative Staphylococcus (GC 4547) ([2]; strain GC 4547; broth dilution, 18 hours at 35° C.): >128 µg/mL
- MIC Coagulase Negative Staphylococcus (GC 4548) ([2]; strain GC 4548; broth dilution, 18 hours at 35° C.): >128 µg/mL
- MIC Coagulase Negative Staphylococcus (GC 4549) ([2]; strain GC 4549; broth dilution, 18 hours at 35° C.): >128 µg/mL
- MIC Coagulase Negative Staphylococcus (GC 4551) ([2]; strain GC 4551; broth dilution, 18 hours at 35° C.): >128 µg/mL
- MIC Streptococcus pneumoniae (ATCC 6301) [3]: 64 µg/mL (≈ 49 µM)
- MIC Streptococcus pneumoniae (GC 1894) [3]: 32 µg/mL (≈ 24.5 µM)
- MIC Streptococcus pyogenes (GC 4563) [3]: 64 µg/mL (≈ 49 µM)
- MIC Streptococcus agalactiae (GC 4564) [3]: 64 µg/mL (≈ 49 µM)
- MIC Streptococcus pneumoniae (GC 4565) [3]: 64 µg/mL (≈ 49 µM)
- MIC Escherichia coli (ATCC 25922) [4]: >128 µg/mL
- MIC Escherichia coli (GC 4559) [4]: >128 µg/mL
- MIC Escherichia coli (GC 4560) [4]: >128 µg/mL
SMILES: CC(C1CCCCC1)C1NC(=O)CNC(=O)C(CO)NC(=O)C(C(O)C2CNC(=N)N2C2OC(CO)C(O)C(O)C2O)NC(=O)C(C(O)C2CNC(=N)N2)NC(=O)C(CC2CCC(OC3OC(CO)C(OC4OC(CO)C(O)C(O)C4O)C(O)C3O)CC2)NC1=O (stereo not drawn) [Example 53a, Cyclo[3-[4-[(4-O-hexopyranosylhexopyranosyl)oxy]cyclohexyl]alanyl-3-(2-iminoimidazolidin-4-yl)seryl-3-(3-hexopyranosyl-2-iminoimidazolidin-4-yl)serylserylglycyl-3-cyclohexyl-2-aminobutanoyl]]
- MIC Staphylococcus haemolyticus (GC 4546) ([2]; strain GC 4546; broth dilution, 18 hours at 35° C.): >128 µg/mL

- MIC Enterococcus faecalis (ATCC 29212) ([1]; strain ATCC 29212): >64 µg/mL
- MIC Enterococcus faecalis (GC 2242) [1]: >64 µg/mL
- MIC Enterococcus faecium (GC 2243) ([1]; strain GC 2243): >64 µg/mL
- MIC Enterococcus faecalis (GC 2691) [1]: >64 µg/mL
- MIC Enterococcus faecalis (GC 3059) [1]: >64 µg/mL
- MIC Enterococcus faecalis (GC 4552) ([1]; strain GC 4552): >64 µg/mL
- MIC Enterococcus faecalis (GC 4553) ([1]; strain GC 4553): >64 µg/mL
- MIC Enterococcus faecalis (GC 4554) ([1]; strain GC 4554): >64 µg/mL
- MIC Enterococcus faecium (GC 4556) ([1]; strain GC 4556): >64 µg/mL
- MIC Enterococcus faecium (GC 4557) ([1]; strain GC 4557): >64 µg/mL
- MIC Enterococcus avium (GC 4558) ([1]; strain GC 4558): >64 µg/mL
- MIC Enterococcus faecalis (GC 6189) ([1]; strain GC 6189): >64 µg/mL
- MIC Staphylococcus aureus (ATCC 29213) ([2]; broth dilution, 18 hours at 35° C.; strain ATCC 29213): >64 µg/mL
- MIC Staphylococcus aureus (GC 1131) ([2]; broth dilution, 18 hours at 35° C.; strain GC 1131): >64 µg/mL
- MIC Staphylococcus aureus (GC 3051) ([2]; broth dilution, 18 hours at 35° C.; strain GC 3051): >64 µg/mL
- MIC Staphylococcus aureus (GC 3053) ([2]; broth dilution, 18 hours at 35° C.; strain GC 3053): >64 µg/mL
- MIC Staphylococcus aureus (GC 4541) ([2]; broth dilution, 18 hours at 35° C.; strain GC 4541): >64 µg/mL
- MIC Staphylococcus aureus (GC 4542) ([2]; broth dilution, 18 hours at 35° C.; strain GC 4542): >64 µg/mL
- MIC Staphylococcus aureus-SMITH (GC 4543) ([2]; broth dilution, 18 hours at 35° C.; strain GC 4543): >64 µg/mL
- MIC Staphylococcus aureus (GC 4544) ([2]; broth dilution, 18 hours at 35° C.; strain GC 4544): >64 µg/mL
- MIC Staphylococcus aureus (GC 4545) ([2]; broth dilution, 18 hours at 35° C.; strain GC 4545): >64 µg/mL
- MIC Coagulase Negative Staphylococcus (GC 4547) ([2]; broth dilution, 18 hours at 35° C.; strain GC 4547): >64 µg/mL
- MIC Coagulase Negative Staphylococcus (GC 4548) ([2]; broth dilution, 18 hours at 35° C.; strain GC 4548): >64 µg/mL
- MIC Coagulase Negative Staphylococcus (GC 4549) ([2]; broth dilution, 18 hours at 35° C.; strain GC 4549): >64 µg/mL
- MIC Coagulase Negative Staphylococcus (GC 4551) ([2]; broth dilution, 18 hours at 35° C.; strain GC 4551): >64 µg/mL
- MIC Coagulase Negative Staphylococcus (GC 6257) ([2]; broth dilution, 18 hours at 35° C.; strain GC 6257): >64 µg/mL
- MIC Streptococcus pneumoniae (ATCC 6301) [3]: >64 µg/mL
- MIC Streptococcus pneumoniae (GC 1894) [3]: >64 µg/mL
- MIC Streptococcus pyogenes (GC 4563) [3]: >64 µg/mL
- MIC Streptococcus agalactiae (GC 4564) [3]: >64 µg/mL
- MIC Streptococcus pneumoniae (GC 4565) [3]: >64 µg/mL
- MIC Escherichia coli (ATCC 25922) [4]: >64 µg/mL
- MIC Escherichia coli (GC 4559) [4]: >64 µg/mL
- MIC Escherichia coli (GC 4560) [4]: >64 µg/mL
SMILES: CC(c1ccccc1)C1NC(=O)CNC(=O)C(CO)NC(=O)C(CC2CNC(=N)N2C2OC(CO)C(O)C(O)C2O)NC(=O)C(CC2CNC(=N)N2)NC(=O)C(Cc2ccc(O)c([N+](=O)[O-])c2)NC1=O (stereo not drawn) [Example 10, Cyclo[3-(2-iminoimidazolidin-4-yl)alanyl-3-(3-hexopyranosyl-2-iminoimidazolidin-4-yl)-alanylserylglycyl-β-methylphenylalanyl-3-nitrotyrosyl]] (cyclo(G[ξPhe(βξ-Me)][Tyr(3-NO2)][X7][X6]S); configuration not given here)
- MIC Staphylococcus haemolyticus (GC 4546) ([2]; broth dilution, 18 hours at 35° C.; strain GC 4546): >64 µg/mL
